According to patent publication US8569286B2, “Notch pathway signaling inhibitor compound” (Eli Lilly and Company, priority 2011, dated 2013):

Legend:
HEK293ΔE12 cells = assay: Relative cytotoxicity profiling (% cell number) in the N1ICD imaging assay; assay type: cell-based; details: 24 hours treatment
Experimental: (§1) HEK293ΔE12 cells (HEK293 cells are engineered to stably express mouse Notch 1 cDNA coding for amino acid 1703-2183, NP_032740.3, with 23 amino acid signal peptide sequence, […] (SEQ ID NO:1), at its N-terminus) are plated at 5000 cells/well in 96 well plates, incubated in Dulbecco's Modified Eagle's Medium-high glucose with 5% fetal bovine serum at 37° C., 5% CO2 for 24 hours. Cells are treated with test compound, dosing at 10 points of 1:3 dilutions across the range of 1000 nM to 0.05 nM, and with final dimethyl sulfoxide (DMSO) concentration at 0.2%. […] Plates are scanned with ACUMEN EXPLORER™ Laser-scanning fluorescence microplate cytometer (TTP LABTECH LTD) to measure total cell nuclear count/well and total nuclear area/well with fluorescence at 655 nm-705 nm (emission of DNA bound propidium iodide) and fluorescence of antibody binding to N1ICD in nuclear region at 505 nm-530 nm. The main assay output is a ratio of total fluorescence of nuclear N1ICD to total nuclear area, the normalized nuclear N1ICD signal. […] Concentration response and the IC50 are determined by curve fitting to a four parameter logistic for the nuclear N1ICD signal, while the % cell number is plotted in the same graph for cytotoxicity profiling.

major CYP450 enzymes = assay: CYP450 inhibition and induction; assay type: in vitro ADME
N1ICD cleavage (Notch1) = assay: Inhibition of N1ICD cleavage in human tumor cell lines (N1ICD ELISA); assay type: cell-based; details: 24 hours treatment
Source text: To evaluate potency of Compound 1 in its ability to inhibit N1ICD cleavage, several human tumor cell lines are utilized. A2780 is a human ovarian cell line (Sigma-Aldrich, No. 93112519); MIA PaCa-2 is a human pancreas cell line (ATCC No. CRL-1420); BxPC-3 is a human pancreas cell line (ATCC No. CRL-1687); SW480 is a human colorectal cell line (ATCC No. CCL-228); HCT 116 is a human colorectal cell line (ATCC No. CCL-247); DLD-1 is a human colorectal cell line (ATCC No. CCL-221); MDA-MB-231 is a human mammary gland cell line (ATCC No. HTB-26); U-87 MG is a human glioblastoma cell line (ATCC No. HTB-14); A375 is a human malignant melanoma cell line (ATCC No. CRL-1619); CCRF-CEM is a human acute lymphoblastic leukemia (ALL) cell line (ATCC No. CCL-119); SUP-T1 is a human T-cell lymphoblastic leukemia cell line (ATCC No. CRL-1942); K-562 is a human chronic myelogenous leukemia (CML) cell line characterized by the presence of a fusion transcript comprised of the Bcr and Abl1 genes (ATCC No. CCL-243); Jurkat, Clone E6-1 is a human acute T-cell leukemia cell line (ATCC No. TIB-152); MOLT-3 is a human acute lymphoblastic leukemia (ALL) cell line (ATCC No. CRL-1552); MOLT-4 is a human acute lymphoblastic leukemia (ALL) cell line (ATCC No. CRL-1582); HEL 92.1.7 is a human erythroleukemia cell line (ATCC No. TIB-180). Each of the cell lines are obtained from the American Type Culture Collection (ATCC) at the ATCC number stated, except the A2780 cell line which is obtained from Sigma-Aldrich at the stated catalog number. The cells are grown in their respective culture media at 37° C. in 5% CO2 with humidity in the atmosphere. Cell culture media for A2780 human ovarian carcinoma is RPMI-1640 (without phenol red) with 2.05 mM L-glutamine, added 2 mM L-glutamine, 0.01 mg/ml insulin and 10% fetal bovine serum (FBS); for HCT 116 human colorectal carcinoma is McCoy's 5A with 1.5 mM L-glutamine, 0.075% Na-bicarbonate and 10% FBS; for SW480 human colorectal carcinoma is RPMI-1640 with 2.05 mM L-glutamine, 20 mM HEPES and 10% FBS; U-87 MG human glioblastoma is Minimal Essential Medium/Earl's Balanced Salt Solution with 2 mM L-glutamine, 0.1 mM Non-essential amino acids (NEAA), 1 mM Na-pyruvate, and 10% FBS; for MIA PaCa-2 human pancreatic carcinoma is Dulbecco's Modified Eagles Medium (DMEM) without Na-pyruvate, with high glucose ([…]), 4 mM L-glutamine, 2.5% horse serum and 10% FBS; for K-562 human CML is DMEM with high glucose ([…]), 4 mM L-glutamine, 10 mM HEPES, 0.1 mM NEAA, 1 mM Na-pyruvate and 10% FBS; for Jurkat, Clone E6-1 human acute T cell leukemia is RPMI-1640 with 2.05 mM L-glutamine, 2.5 g/L glucose, 10 mM HEPES, 1 mM Na-pyruvate, 0.075% Na-bicarbonate and 10% FBS; for A-375 human malignant melanoma and MDA-MB-231 human breast adenocarcinoma is DMEM with high glucose ([…]), 4 mM L-glutamine and 10% FBS; for BxPC-3 human pancreatic adenocarcinoma, DLD-1 human colorectal adenocarcinoma, SUP-T1 human lymphoblastic leukemia, MOLT-3 human ALL, Molt-4 human ALL, CCRF-CEM human ALL, and HEL 92.1.7 human erythroleukemia is RPMI-1640 with 2.05 mM L-glutamine, 2.5 g/L glucose, 20 mM HEPES, 1 mM Na-pyruvate, and 10% FBS. When 80-90% confluent, cells are treated with compound, dosing at 10 points of 1:3 dilutions across the range of 50 nM to 0.0025 nM, and with final dimethyl sulfoxide (DMSO) concentration at 0.01%. […]

[1] = Metabolism by liver microsomes optimized for oxidative CYP450 metabolism; assay type: in vitro ADME
[2] = In vivo pharmacokinetics, excretion and metabolism in rats
Experimental: Compound 1 was evaluated in vivo in bile-duct cannulated rats to study systemic pharmacokinetics (PK), excretion, and metabolism. In vivo 51% of the IV dose was excreted unchanged, predominately in the urine, with low (2% of parent) systemic exposure to an active N-dealkylated metabolite, 4,4,4-trifluoro-N-[(1S)-1-methyl-2-oxo-2-[[(7S)-6-oxo-5,7-dihydropyrido[2,3-d][3]benzazepin-7-yl]amino]ethyl]butanamide.

[3] = Atropisomer equilibrium in solution (1H NMR and LC-MS); assay type: physicochemical; details: ambient temperature, after 24 hours
Experimental: In aqueous solutions, 8-9% of atropisomer 2 (minor atropisomer) is detected by ^1H NMR and LC-MS in equilibrium with atropisomer 1 (major atropisomer) at ambient temperature after 24 hours. In organic solvents, at ambient temperature after 24 hours, approximately 1-2% of atropisomer 2 is detected by ^1H NMR and LC-MS in equilibrium with atropisomer 1. Although detectable by ^1H NMR and LC-MS analysis, atropisomer 2 is not isolable.

[4] = In vivo metabolism and excretion in dogs
[5] = tested on: mouse Notch 1 (nuclear N1ICD signal); assay: Notch1 N1ICD Nuclear Accumulation Cellular Imaging Assay; assay type: cell-based; details: HEK293ΔE12 cells, 24 hours treatment, n=7
Experimental: as §1

**Q.** Which results are given for C[C@H](NC(=O)CCC(F)(F)F)C(=O)N[C@@H]1C(=O)N(CCO)c2ncccc2-c2ccccc21 [Compound 1, 4,4,4-trifluoro-N-[(1S)-2-[[(7S)-5-(2-hydroxyethyl)-6-oxo-7H-pyrido[2,3-d][3]benzazepin-7-yl]amino]-1-methyl-2-oxo-ethyl]butanamide]?
**A.** concentration up to which cell number is not affected (cytotoxicity profiling) (HEK293ΔE12 cells): > 1000 nM; inhibition or induction of the major CYP450 enzymes (major CYP450 enzymes): not an inhibitor or inducer; IC50 (N1ICD cleavage (Notch1); A2780 cells): 1.03 nM; IC50 (N1ICD cleavage (Notch1); A-375 cells): 0.48 nM; IC50 (N1ICD cleavage (Notch1); BxPC-3 cells): 0.39 nM; IC50 (N1ICD cleavage (Notch1); CCRF-CEM cells): 0.76 nM; IC50 (N1ICD cleavage (Notch1); DLD-1 cells): 0.98 nM; IC50 (N1ICD cleavage (Notch1); HCT 116 cells): 0.72 nM; IC50 (N1ICD cleavage (Notch1); HEL 92.1.7 cells): 0.23 nM; IC50 (N1ICD cleavage (Notch1); Jurkat cells): 5.95 nM; IC50 (N1ICD cleavage (Notch1); K-562 cells): 0.74 nM; IC50 (N1ICD cleavage (Notch1); MDA-MB-231 cells): 0.5 nM; IC50 (N1ICD cleavage (Notch1); MIA PaCa-2 cells): 0.71 nM; IC50 (N1ICD cleavage (Notch1); MOLT-3 cells): 0.61 nM; IC50 (N1ICD cleavage (Notch1); MOLT-4 cells): 0.74 nM; IC50 (N1ICD cleavage (Notch1); SUP-T1 cells): 1.24 nM; IC50 (N1ICD cleavage (Notch1); SW480 cells): 0.1 nM; IC50 (N1ICD cleavage (Notch1); U-87 MG cells): 0.28 nM; metabolism by liver microsomes [1]: not metabolized to any appreciable extent; dose excreted unchanged ([2]; bile-duct cannulated rats, IV dose, predominately in the urine): 51%; additional circulating metabolites (profiling of rat plasma) ([2]; rat plasma): absence of additional circulating metabolites; major oxidative metabolites in circulation or excreta ([2]; rats in vivo): not observed; atropisomer 2 (minor atropisomer) in equilibrium with atropisomer 1 ([3]; aqueous solutions): 8-9%; atropisomer 2 (minor atropisomer) in equilibrium with atropisomer 1 ([3]; organic solvents): 1-2%; clearance by excretion of parent compound ([4]; bile-duct intact dogs): appreciable clearance by excretion of parent compound; major circulating active metabolites ([4]; bile-duct intact dogs): absence of major circulating active metabolites; major oxidative metabolites in circulation or excreta ([4]; dogs in vivo): not observed; IC50 [5]: 0.41 nM
